Source: article PMC2774256 (Bioorganic & medicinal chemistry, 2009)
Square brackets hold non-standard residues; d marks the D form. Ends that are not written are not given here. * marks the point of attachment. dNMeF = CN[C@H](Cc1ccccc1)C(=O)O; Cha = N[C@@H](CC1CCCCC1)C(=O)O; NMeL = CN[C@@H](CC(C)C)C(=O)O; dNMeV = CN[C@@H](C(=O)O)C(C)C; NMeV = CN[C@H](C(=O)O)C(C)C; Cbz = O=C(OCc1ccccc1)*; Bn = c1ccc(C*)cc1

Legend:
[1] = test system: BxPC-3 pancreatic cancer cells; assay: 3H-thymidine incorporation/growth inhibition assay
[2] = test system: PL-45 pancreatic cancer cells; assay: 3H-thymidine incorporation/growth inhibition assay

[dY][dNMeF]VLL [Compound 15]
cytotoxicity / growth inhibition in words [1]: very poor cytotoxicity
cytotoxicity / growth inhibition in words [2]: cytotoxic

cyclo(FL[dNMeV][dK][dF]) [Compound 64]
cytotoxicity / growth inhibition in words [1]: not toxic
cytotoxicity / growth inhibition in words [2]: not toxic

FL[dV][dL]L [Compound 37]
cytotoxicity / growth inhibition in words [1]: not potent
cytotoxicity / growth inhibition in words [2]: not potent

FLVK(Cbz)[NMeL] [Compound 68]
cytotoxicity / growth inhibition in words [1]: not toxic
cytotoxicity / growth inhibition in words [2]: not toxic

[dF]L[NMeV][dL][dF] [Compound 61]
cytotoxicity / growth inhibition in words [1]: relatively non-toxic
cytotoxicity / growth inhibition in words [2]: relatively non-toxic

F[dNMeF]V[Cha]L [Compound 49]
cytotoxicity / growth inhibition in words [1]: underwhelming cytotoxicity
cytotoxicity / growth inhibition in words [2]: underwhelming cytotoxicity

F[dNMeF]V[Cha]S(Bn) [Compound 60]
cytotoxicity / growth inhibition in words [1]: not effective
cytotoxicity / growth inhibition in words [2]: not effective

F[dNMeF][dV]LL [Compound 32]
cytotoxicity / growth inhibition in words [1]: very poor cytotoxicity
cytotoxicity / growth inhibition in words [2]: cytotoxic

FL[NMeV]L[dF] [Compound 62]
cytotoxicity / growth inhibition in words [1]: relatively non-toxic
cytotoxicity / growth inhibition in words [2]: relatively non-toxic
